These results are taken from patent publication US6538008B1, “Combination of a selective NMDA NR2B antagonist and an opioid analgesic” (Merck Sharpe & Dohme Limited, priority 1998, dated 2003).

Data set [1] concerns mechanical allodynia induced by sciatic nerve ligation. Kind of data set: Sciatic nerve ligation assay of neuropathic pain (mechanical allodynia, modified Randall-Selitto algesiometer). As to conditions: for effect on mechanical allodynia induced by sciatic nerve ligation: in words, Example 5; for ID50 Antinociception Rat Ligation: reversal of mechanical allodynia 7 days after ligation, compound given 1 h before test, route given per compound. In kind it is in vivo, rat.

In data set [2] the test system is rotarod performance (motor co-ordination). Kind of data set: Motor co-ordination and behaviour, accelerating rotarod. The note with it: for ID50 Motor Impairment Rat Rotarod: accelerating rotarod 1 h after drug, route given per compound. The protocol: (§1) Anti-algesic activity was assessed using an assay of neuropathic pain in rats (sciatic nerve ligation) and in a carrageenan-induced hyperalgesia assay. Motor impairment was measured using an accelerating rotarod.
(§2) For sciatic nerve ligation, male Sprague Dawley rats (180-220 g) were anaesthetised with isofluorane, the left sciatic nerve exposed and 4 chromic catgut (4.0) ligatures were tied loosely around the nerve (spaced 1-2 mm apart) immediately proximal to the point of trifurcation. In sham-operated animals, the same dissection was performed but without ligation. Responses to mechanical pressure were assessed 7 days after ligation using a modified Randall-Selitto algesiometer in which constant force of 40 mmHg was applied to the hind paw and the latency to struggle was recorded as the reaction time. Mechanical allodynia was defined as the difference in reaction time for sham and ligature rats. Reaction times for drug treated rats were expressed as a percentage of this response. Compounds were administered 1 h before the test. In the carrageenan-induced hyperalgesia assay, male Sprague Dawley rats (100-120 g) received an intraplantar injection of carrageenan (4.5 mg) and mechanical thresholds were determined 3 h later using a modified Ugo Basile Algesiometer. Control rats received saline (0.15 ml i.pl.). Hyperalgesia was defined as the difference in vocalisation threshold for saline- and carrageenan-injected rats. Paw pressure scores for drug-treated rats were expressed as a percentage of this response. Compounds were administered 2 h after carrageenan. To determine the effects of the compounds on motor co-ordination, male Sprague Dawley rats (160-180 g) were first trained to remain for 120 s on the rotarod apparatus revolving at 12 r.p.m. on the morning before the test. […] Lamotrigine, gabapentin and (±)-CP-101,606 were suspended in 0.5% methocel and administered orally (1 ml/kg). Ifenprodil, L-701.324, L-687,414 and (±)-Ro25-6981 were dissolved or suspended in 0.5% methocel and administered intraperitoneally (1 ml/kg). MK-801 was dissolved in distilled water and given i.p. (1 ml/kg). Doses of compounds refer to the free base.
(§3) Male Sprague Dawley rats (100-120 g) received an intraplantar injection of carrageenan (4.5 mg) and mechanical thresholds were determined 3 h later using a modified Ugo Basile Algesiometer. Control rats received saline (0.15 ml i.pl.). Hyperalgesia was defined as the difference in vocalisation threshold for saline- and carrageenan-injected rats. Paw pressure scores for drug-treated rats were expressed as a percentage of this response. Compounds were administered 2 h after carrageenan. To determine the effects of morphine and (±)-Ro25-6981 on motor co-ordination, male Sprague Dawley rats (160-180 g) were first trained to remain for 120 s on the rotarod apparatus revolving at 12 r.p.m. on the morning before the test.
(§4) (±)-Ro25-6981 was suspended in 0.5% methocel and administered intraperitoneally (1 ml/kg). Morphine HCl was dissolved in saline and given subcutaneously (1 ml/kg). Doses of compounds refer to the free base.
(The rotarod test checks motor coordination on a turning rod.)

In data set [3] the test system is mechanical hyperalgesia induced by carrageenan. Put plainly: Carrageenan-induced mechanical hyperalgesia assay (modified Ugo Basile Algesiometer). In kind it is in vivo, rat. As to conditions: for ID50 Antinociception Rat Carrageenan: inhibition of mechanical hyperalgesia 3 h after carrageenan 4.5 mg i.pl., compound given 2 h after carrageenan, route given per compound. The method, then:
as §1, §2, §3, §4

Data set [4] concerns rat hyperalgesic and nociceptive tests. The note with it: at doses showing no behavioural abnormality; cited from earlier work.

“And” between values parts separate entries of the source, which are not always exact repeats. Equal values may be shown once.

In the case of `NCC1(CC(=O)O)CCCCC1` [Gabapentin, gabapentin], in data set [1], the “effect on mechanical allodynia induced by sciatic nerve ligation” value (shortened to “effect on mechanical allodynia induced”) is given as “reversed mechanical allodynia” and the “ID50 Antinociception Rat Ligation” value amounted to 87 mg/kg. The “ID50 Motor Impairment Rat Rotarod” value in data set [2] is listed as 133 mg/kg. The behavioural effects observed result in data set [2] (doses of 30-300 mg/kg) is reported as “motor impairments (ataxia)”. The “ID50 Antinociception Rat Carrageenan” value in data set [3] stood at 50 mg/kg.
As to `Nc1nnc(-c2cccc(Cl)c2Cl)c(N)n1` [Lamotrigine, lamotrigine], in data set [1], the “effect on mechanical allodynia induced” value is recorded as “reversed mechanical allodynia” and the “ID50 Antinociception Rat Ligation” value was 11 mg/kg. Besides, in data set [2] (500 mg/kg p.o.), the “inhibition in the time spent on the rotarod” value is on record as 40% and the “other effects observed besides rotarod inhibition” value is reported as “no other effects were observed”. The “ID50 Motor Impairment Rat Rotarod” value in data set [2] is listed as greater than 500 mg/kg. Further, in data set [3], the “ID50 Antinociception Rat Carrageenan” value worked out at 207 mg/kg.
On to (±)-CP-101,606, for which, in data set [1], the “effect on mechanical allodynia induced” value is “dose-dependently reversed mechanical allodynia” and the “ID50 Antinociception Rat Ligation” value amounted to 6.1 mg/kg. In addition, the “rotarod latency compared to vehicle-treated rats” value in data set [2] (300 mg/kg dose) was “significant increase in latency”. Moreover, the “ID50 Motor Impairment Rat Rotarod” value in data set [2] was greater than 300 mg/kg. Moreover, the “effect on motor performance on the rotarod” value in data set [2] (up to 300 mg/kg p.o.) is “did not inhibit motor performance”. The “ID50 Antinociception Rat Carrageenan” value in data set [3] is on record as 37 mg/kg.
Turning to `C[C@@H]([C@@H](O)c1ccc(O)cc1)N1CCC(O)(c2ccccc2)CC1` [CP-101,606], the analgesic activity result in data set [4] was “Potent analgesic activity”.
Consider `C[C@]12N[C@H](Cc3ccccc31)c1ccccc12` [MK-801], for which, in data set [1], the “effect on mechanical allodynia induced” value is “dose-dependently reversed mechanical allodynia” and the “ID50 Antinociception Rat Ligation” value is 0.19 mg/kg. The behavioural effects observed result in data set [2] (0.3 and 1 mg/kg doses) was “Body rolling. and head weaving”. In data set [2], the “ID50 Motor Impairment Rat Rotarod” value is reported as 0.22 mg/kg. The “ID50 Antinociception Rat Carrageenan” value in data set [3] worked out at 0.21 mg/kg.
On to `C[C@@H](CN1CCC(Cc2ccccc2)CC1)[C@@H](O)c1ccc(O)cc1` (racemic) [(±)-Ro25-6981], for which, in data set [1], the “effect on mechanical allodynia induced” value is on record as “dose-dependently reversed mechanical allodynia” and the “ID50 Antinociception Rat Ligation” value is reported as 3.8 mg/kg. The “effect on rotarod performance” value in data set [2] (1 mg/kg i.p. alone (FIG. 3)) was “no effect”. For the same compound, in data set [2] (100 mg/kg i.p.), the “inhibition of rotarod performance” value came to 47%. Besides, the “ID50 Motor Impairment Rat Rotarod” value in data set [2] is recorded as “≧100 mg/kg”. In addition, the “antinociception in carrageenan-induced hyperalgesia” value in data set [3] (1 mg/kg i.p., alone) is listed as “did not cause significant antinociception”. Moreover, the “effect on mechanical hyperalgesia induced by carrageenan” value in data set [3] (10 and 30 mg/kg i.p., alone (FIG. 1)) is recorded as “dose-dependent reversal of mechanical hyperalgesia”. The “ID50 Antinociception Rat Carrageenan” value in data set [3] came out at 5.7 mg/kg.
As for `C[C@@H]1CN(O)C(=O)[C@@H]1N` [L-687,414], in data set [1], the “effect on mechanical allodynia induced” value is “dose-dependently reversed mechanical allodynia” and the “ID50 Antinociception Rat Ligation” value was determined as 9.8 mg/kg. Also, the behavioural effects observed entry in data set [2] (100 and 300 mg/kg i.p.) is “body rolling and ataxia”. In data set [2], the “ID50 Motor Impairment Rat Rotarod” value is 53.3 mg/kg and 53 mg/kg. Further, the “ID50 Antinociception Rat Carrageenan” value in data set [3] came out at 50 mg/kg.
As to `CN1CC[C@]23c4c5ccc(O)c4O[C@H]2[C@@H](O)C=C[C@H]3[C@H]1C5` [morphine], the “effect on rotarod performance” value in data set [2] (3 mg/kg s.c. alone (FIG. 3)) is recorded as “significant impairment”; in data set [2] (0.3 and 1 mg/kg s.c. alone (FIG. 3)) it was “no effect”. Further, the “effect on mechanical hyperalgesia induced by carrageenan” value in data set [3] (1 mg/kg s.c., alone (FIG. 2)) is “completely reversed mechanical hyperalgesia”; in data set [3] (0.1 and 0.3 mg/kg s.c., alone (FIG. 2)) it was “without effect”. Besides, the entries for the “percent inhibition of hyperalgesia” value in data set [3] (morphine 0.1 mg/kg s.c. alone) and in data set [3] (morphine 0.3 mg/kg s.c. alone) were 11% and 31%, respectively.
Regarding `CC(C(O)c1ccc(O)cc1)N1CCC(Cc2ccccc2)CC1` (centres unmarked) [Ifenprodil, ifenprodil], in data set [1], the “effect on mechanical allodynia induced” value is “reversed mechanical allodynia” and the “ID50 Antinociception Rat Ligation” value is listed as 9.5 mg/kg. In addition, in data set [2] (50 mg/kg), the “adverse effects observed (ptosis, piloerection, hypoactivity, hyperventilation)” value is listed as “severe adverse effects” and the “impairment in rotarod performance” value is “approximately 50%”. Also, the “ID50 Motor Impairment Rat Rotarod” value in data set [2] is on record as “≧50 mg/kg”. Moreover, in data set [3], the “ID50 Antinociception Rat Carrageenan” value is listed as 17 mg/kg.
`O=c1[nH]c2cc(Cl)ccc2c(O)c1-c1cccc(Oc2ccccc2)c1` [L-701,324]: in data set [1], the “effect on mechanical allodynia induced” value was “dose-dependently reversed mechanical allodynia” and the “ID50 Antinociception Rat Ligation” value is on record as 2.6 mg/kg. Also, the behavioural effects observed result in data set [2] (10 and 30 mg/kg i.p.) is “ataxia was evident”. Besides, the “ID50 Motor Impairment Rat Rotarod” value in data set [2] was 1.9 mg/kg. Moreover, the “ID50 Antinociception Rat Carrageenan” value in data set [3] was determined as 2.5 mg/kg.
